Results: the supplement of paper PMC10307832

Experiments:
Experiment in all cases: relative viability (nuclei count vs DMSO), 5 days (fraction); higher = more cells survive
A-427 = system: A-427
Summary of the method: (§1)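 For relative viability, nuclei counts in treated wells were divided by those in vehicle wells. Lung cancer cell lines had been pin-tool dosed in 1536-well plates the day after seeding and cultured for 5 days, then fixed and stained in one step (final 0.05% Triton X-100, 1% formaldehyde, 1 ug/ml Hoechst) and imaged at 4×. Doses were one drug alone or a fixed anchor-drug dose plus five library-drug doses (not always all listed) in √10 steps, and values are duplicate-plate medians.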

CAL-12T = system: CAL-12T
Summary of the method: as §1

COR-L 105 = system: COR-L 105
Summary of the method: as §1

COR-L23 = system: COR-L23
Summary of the method: as §1

EPLC-272H = system: EPLC-272H
Summary of the method: as §1

HOP-62 = system: HOP-62
Summary of the method: as §1

LCLC-103H = system: LCLC-103H
Summary of the method: as §1

LXF-289 = system: LXF-289
Summary of the method: as §1

NCI-H1395 = system: NCI-H1395
Summary of the method: as §1

NCI-H1651 = system: NCI-H1651
Summary of the method: as §1

NCI-H1975 = system: NCI-H1975
Summary of the method: as §1

NCI-H1993 = system: NCI-H1993
Summary of the method: as §1

NCI-H2023 = system: NCI-H2023
Summary of the method: as §1

NCI-H2085 = system: NCI-H2085
Summary of the method: as §1

NCI-H2087 = system: NCI-H2087
Summary of the method: as §1

NCI-H2170 = system: NCI-H2170
Summary of the method: as §1

NCI-H3122 = system: NCI-H3122
Summary of the method: as §1

NCI-H596 = system: NCI-H596
Summary of the method: as §1

NCI-H647 = system: NCI-H647
Summary of the method: as §1

NCI-H650 = system: NCI-H650
Summary of the method: as §1

PC-14 = system: PC-14
Summary of the method: as §1

RERF-LC-KJ = system: RERF-LC-KJ
Summary of the method: as §1

SK-MES-1 = system: SK-MES-1
Summary of the method: as §1

In the case of `Cc1cnc(-c2cnc(NCCNc3ccc(C#N)cn3)nc2-c2ccc(Cl)cc2Cl)[nH]1` + O=C(c1cc(Cc2n[nH]c(=O)c3ccccc23)ccc1F)N1CCN(C(=O)C2CC2)CC1 [Olaparib] (partner 8 µM), the relative viability (A-427; first compound 0.08 µM) is reported as 0.759, the relative viability (A-427; first compound 0.253 µM) is reported as 0.711 and the relative viability (A-427; first compound 0.8 µM) is reported as 0.822. It also gave a relative viability (A-427; first compound 2.53 µM) of 0.743, a relative viability (CAL-12T; first compound 0.08 µM) of 0.686 and a relative viability (CAL-12T; first compound 0.253 µM) of 0.698. It also gave a relative viability (CAL-12T; first compound 0.8 µM) of 0.802, a relative viability (CAL-12T; first compound 2.53 µM) of 0.756 and a relative viability (COR-L 105; first compound 0.08 µM) of 0.734. The relative viability (COR-L 105; first compound 0.253 µM) was 0.711, the relative viability (COR-L 105; first compound 0.8 µM) was 0.642 and the relative viability (COR-L 105; first compound 2.53 µM) was 0.691. The relative viability (COR-L23; first compound 0.08 µM) was 0.379, the relative viability (COR-L23; first compound 0.253 µM) was 0.314 and the relative viability (COR-L23; first compound 0.8 µM) was 0.343. The relative viability (COR-L23; first compound 2.53 µM) was 0.261, the relative viability (EPLC-272H; first compound 0.08 µM) was 0.731 and the relative viability (EPLC-272H; first compound 0.253 µM) was 0.779. The relative viability (EPLC-272H; first compound 0.8 µM) was 0.739, the relative viability (EPLC-272H; first compound 2.53 µM) was 0.666 and the relative viability (HOP-62; first compound 0.08 µM) was 0.354. The relative viability (HOP-62; first compound 0.253 µM) was 0.362, the relative viability (HOP-62; first compound 0.8 µM) was 0.502 and the relative viability (HOP-62; first compound 2.53 µM) was 0.324. The relative viability (LCLC-103H; first compound 0.08 µM) was 0.837, the relative viability (LCLC-103H; first compound 0.253 µM) was 0.673 and the relative viability (LCLC-103H; first compound 0.8 µM) was 0.731. For the same molecule, the relative viability (LCLC-103H; first compound 2.53 µM) was 0.818, the relative viability (LXF-289; first compound 0.08 µM) was 1.04 and the relative viability (LXF-289; first compound 0.253 µM) was 1. It also gave a relative viability (LXF-289; first compound 0.8 µM) of 1.11, a relative viability (LXF-289; first compound 2.53 µM) of 1.11 and a relative viability (NCI-H1395; first compound 0.08 µM) of 0.496. For the same molecule, the relative viability (NCI-H1395; first compound 0.253 µM) was 0.435, the relative viability (NCI-H1395; first compound 0.8 µM) was 0.504 and the relative viability (NCI-H1395; first compound 2.53 µM) was 0.47. For the same molecule, the relative viability (NCI-H1651; first compound 0.08 µM) was 0.175, the relative viability (NCI-H1651; first compound 0.253 µM) was 0.192 and the relative viability (NCI-H1651; first compound 0.8 µM) was 0.2. It also gave a relative viability (NCI-H1651; first compound 2.53 µM) of 0.182, a relative viability (NCI-H1975; first compound 0.08 µM) of 0.759 and a relative viability (NCI-H1975; first compound 0.253 µM) of 0.715. It also gave a relative viability (NCI-H1975; first compound 0.8 µM) of 0.672, a relative viability (NCI-H1975; first compound 2.53 µM) of 0.502 and a relative viability (NCI-H1993; first compound 0.08 µM) of 1.1. The relative viability (NCI-H1993; first compound 0.253 µM) was 0.855, the relative viability (NCI-H1993; first compound 0.8 µM) was 1.13 and the relative viability (NCI-H1993; first compound 2.53 µM) was 1.2. For the same molecule, the relative viability (NCI-H2023; first compound 0.08 µM) was 0.502, the relative viability (NCI-H2023; first compound 0.253 µM) was 0.51 and the relative viability (NCI-H2023; first compound 0.8 µM) was 0.439. The relative viability (NCI-H2023; first compound 2.53 µM) was 0.36, the relative viability (NCI-H2085; first compound 0.08 µM) was 0.804 and the relative viability (NCI-H2085; first compound 0.253 µM) was 0.792. For the same molecule, the relative viability (NCI-H2085; first compound 0.8 µM) was 0.711, the relative viability (NCI-H2085; first compound 2.53 µM) was 0.79 and the relative viability (NCI-H2087; first compound 0.08 µM) was 0.671. The relative viability (NCI-H2087; first compound 0.8 µM) was 0.635, the relative viability (NCI-H2087; first compound 2.53 µM) was 0.459 and the relative viability (NCI-H2170; first compound 0.08 µM) was 0.601. It also gave a relative viability (NCI-H2170; first compound 0.8 µM) of 0.518, a relative viability (NCI-H2170; first compound 2.53 µM) of 0.519 and a relative viability (NCI-H3122; first compound 0.08 µM) of 0.568. It also gave a relative viability (NCI-H3122; first compound 0.8 µM) of 0.651, a relative viability (NCI-H3122; first compound 2.53 µM) of 0.545 and a relative viability (NCI-H596; first compound 0.08 µM) of 1.09. The relative viability (NCI-H596; first compound 0.253 µM) was 0.736, the relative viability (NCI-H596; first compound 0.8 µM) was 0.775 and the relative viability (NCI-H596; first compound 2.53 µM) was 0.724. The relative viability (NCI-H647; first compound 0.08 µM) was 0.528, the relative viability (NCI-H647; first compound 0.253 µM) was 0.558 and the relative viability (NCI-H647; first compound 0.8 µM) was 0.528. The relative viability (NCI-H647; first compound 2.53 µM) was 0.429, the relative viability (NCI-H650; first compound 0.08 µM) was 0.41 and the relative viability (NCI-H650; first compound 0.253 µM) was 0.36. It also gave a relative viability (NCI-H650; first compound 0.8 µM) of 0.479, a relative viability (NCI-H650; first compound 2.53 µM) of 0.393 and a relative viability (PC-14; first compound 0.08 µM) of 0.242. For the same molecule, the relative viability (PC-14; first compound 0.253 µM) was 0.235, the relative viability (PC-14; first compound 0.8 µM) was 0.296 and the relative viability (PC-14; first compound 2.53 µM) was 0.233. For the same molecule, the relative viability (RERF-LC-KJ; first compound 0.08 µM) was 0.902, the relative viability (RERF-LC-KJ; first compound 0.253 µM) was 0.65 and the relative viability (RERF-LC-KJ; first compound 0.8 µM) was 0.839. It also gave a relative viability (RERF-LC-KJ; first compound 2.53 µM) of 0.858, a relative viability (SK-MES-1; first compound 0.08 µM) of 0.734 and a relative viability (SK-MES-1; first compound 0.253 µM) of 0.704. It also gave a relative viability (SK-MES-1; first compound 0.8 µM) of 0.738 and a relative viability (SK-MES-1; first compound 2.53 µM) of 0.762.
